Test results taken from patent US5507949A, “Supported liquid membrane and separation process employing same” (Monsanto Company, priority 1993, dated 1996).
Where two headings read alike, the source gives them in different places.

Tests used:
[1] = Description: (§1) A flat sheet microporous polypropylene membrane (Celgard 2400, 38% porosity, 0.05 micron average pore size, 25 micron thick) was wet with polypropylene glycol (PPG) MW 4000 obtained from the Dow Chemical Company by putting a few drops of PPG on the membrane sheet and spreading it out. […] The excess PPG was wiped off and the membrane with immobilized PPG was ready for use. […] The same wetting procedure can be used for hollow fiber membranes. In a module form, the fibers can be wet by pumping PPG slowly through the lumens of the fibers. The excess PPG left in the fibers can thereafter be removed by either blowing air or passing water through the tube side of the fibers.
A flat sheet immobilized liquid membrane prepared according to Example 1 was placed between the two compartments of a cell. Surface area of the membrane was 8 cm^2. One cell compartment contained an aqueous waste solution containing para-nitrophenol (PNP) at a concentration of 4000 to 5000 mg/L and 20 wt % KCl. The other compartment contained 0.1N NaOH as an aqueous strip solution. Both solutions were circulated by pumps. Total volume of liquid on each side of the membrane was 100 ml. The system was at room temperature. PNP levels in both compartments were measured periodically using a spectrophotometric method.

[2] = Partition coefficient between polyalkylene glycol (PPG) and water
Description: *Kp = Acid concentration in PPG .div. Acid Concentration in H2 O at […]

Remark: listed apart in the source
[3] = Transport across hollow fiber supported liquid membrane (Examples 5 and 6); assay type: physicochemical; conditions: Celgard X20 400 hollow fibers; after 3 hours (Example 5)
Description: Celgard X20 400 hollow fibers (40% porosity, 0.065 micron pore size, internal diameter 400 microns, outer diameter 460 microns) were potted into a module containing 54 fibers that were 18 cm long. The total membrane area was 120 cm^2. PPG MW 4000 was pumped through the lumens of the fibers to wet them. Water was then pumped through to remove excess PPG. The module having PPG immobilized in the fiber walls was then used to remove PNP from an aqueous solution containing approximately 4000 to 5000 mg/L PNP and 20 wt % KCl. The aqueous stripping solution was 0.1N NaOH. The set up was similar to that used in Example 2. The initial rate of PNP transport across the hollow fiber membrane was about 4 mg/hr-cm^2 membrane area. After 3 hours of operation PNP concentration in the stripping side went up to 4400 mg/L and that in the feed side dropped to 45 mg/L.
Using a procedure similar to that of Example 5 but using polysulfone hollow fibers (Permea, St. Louis) as the membrane support, selective extraction of PNP from an aqueous waste solution was examined. Ultrafiltration polysulfone hollow fibers (18 cm long, MW cutoff 160,000, OD 1150 microns, ID 870 microns) were potted into a module containing 10 fibers that were 17.6 cm long. The effective membrane area was about 48 cm^2. The initial rate of transport was about 1 mg PNP/hr-cm^2 membrane area.

[4] = known octanol/water system; cited from earlier work
[5] = Stability/integrity of supported liquid membrane; assay type: physicochemical
Description: as §1
The process of Example 2 was repeated but with octanol, a typical organic solvent with high affinity for p-nitrophenol, as the liquid membrane.

[6] = 65° C. (Example 26)
Protocol: Celgard 2500 (flat sheet microporous polypropylene membrane) was wetted with PPG-4000 and sandwiched between two compartments of a membrane cell as described in Example 2. One compartment was filled with a aqueous solution containing 5000 mg/L butanol. Air was swept in the other compartment to remove butanol diffusing through the membrane, thus creating driving force for further transport. The system was operated at 65° C.

[7] = overnight, feed pH 5.4, 20 wt. % KCl (Example 29)
[8] = PPG in Celgard 2400, strip 0.1N NaOH, room temperature (Table 3)
[9] = 30 wt. % Pluronic L-81 in PPG-4000 (Example 23)
[10] = 5 wt % acid, 20 wt % KCl, strip 0.1N NaOH, room temperature (Table 1)
[11] = Celgard 2402, overnight (Example 4)
[12] = Celgard 2500, overnight (Example 3)
[13] = PPG MW about 4000 in CELGARD 2400, 20 wt % NaCl

## O=C(O)c1ccccc1 [benzoic acid]
[1]; feed pH 5.4 (Example 29)
  benzoic acid passage through membrane: virtually blocked by the membrane
[1]; overnight, feed pH 2.5 (Example 30)
  remaining in feed / transported: virtually gone from the feed
[1]; [7]
  benzoic acid detected in aqueous strip solution: < 1 % of feed
[1]; overnight, from hydrolysis of ethyl benzoate (Example 33)
  benzoic acid level in strip solution: about 420 mg/L

## CCCCC(=O)O [Valeric Acid (C5), Valeric Acid]
[2]
  Partition Coeff. (Kp): 24.6
Not told
  Permeability: 160 ×10⁻⁶ cm/s

## O=CO [Formic Acid (C1), Formic Acid]
[1]
  Initial Rate: 1.0 mg/hr-cm^2
[2]; acid concentration in PPG ÷ acid concentration in H2O at equilibrium
  Partition Coeff. (Kp): 0.45
[8]
  Permeability: 5.5 ×10⁻⁶ cm/s
pH 1.6
  Rate: 1.0
pH 5
  Rate: 0.026

## O=C1C=CC(=O)N1 [maleimide]
[1]; [9]
  change of initial rate of maleimide transport vs Example 22: more than doubled
  initial rate of maleimide transport: 2.5 mg/hr-cm^2
[1]; PPG-4000, 7,000 mg/L maleimide, 40 wt. % ammonium sulfate (Example 22)
  initial rate of maleimide transport: about 1.2 mg/hr-cm^2

## CC(=O)O [Acetic Acid (C2), Acetic Acid]
[1]; [10]
  Initial Rate: 1.6 mg/hr-cm^2

## O=[N+]([O-])c1ccc(O)cc1 [PNP, para-nitrophenol]
[1]; [11]
  PNP concentration in feed side: 10 mg/L
  PNP concentration in stripping side: 4900 mg/L
[1]; [12]
  PNP concentration in feed side: 5 mg/L
  PNP concentration in stripping side: 4430 mg/L
[1]; Example 2
  separation factor for PNP over KCl: at least 2000
[1]; Example 2, overnight
  PNP concentration difference caustic side vs waste side: over 1000 times
  PNP concentration in caustic side: about 3800 mg/L
[1]; Example 2, overnight, initial 4000 to 5000 mg/L
  PNP concentration in waste side: about 3 mg/L
[1]; Igepal CO-210 liquid membrane, after 24 hours, initial 4397 ppm (Example 2f)
  PNP level in waste solution: 10 ppm
[1]; PBG MW 2000, overnight (Example 20)
  ratio of PNP concentration caustic side over waste side: about 1300
[1]; carbamate-functional liquid membrane drawing 12, after 5.5 hours, initial 4300 ppm (Example 2c)
  PNP level in waste solution: 25 ppm
[1]; carbamate-functional liquid membrane drawing 12, overnight (Example 2c)
  PNP level in waste solution: 5 ppm
[1]; castor oil liquid membrane, after 96 hours, initial 4272 ppm (Example 2e)
  PNP level in waste solution: 4 ppm
[1]; [7]
  PNP removal from the feed solution: about 99%
[1]; polybutylene glycol MW approximately 5000, overnight (Example 21)
  PNP ratio (concentration of strip side to feed side): 120
[1]; strip 50 wt. % PEG-200, after about 9 hours, initial 4449 ppm (Example 2b)
  PNP level in waste solution: 192 ppm
[1]; strip PEG-200, after about 8 hours, initial 4700 ppm (Example 2a)
  PNP level in waste solution: 12 ppm
[1]; strip PEG-200, after two days, initial 4700 ppm (Example 2a)
  PNP level in waste solution: 0.6 ppm
[2]
  K PPG-4000/Water: 300
[3]
  PNP concentration in feed side: 45 mg/L
  PNP concentration in stripping side: 4400 mg/L

## N.N.O=S(=O)(O)O [ammonium sulfate]
[1]
  ammonium sulfate detected in the stripping solution: no ammonium sulfate was detected

## CCOC(=O)c1ccccc1 [ethyl benzoate]
[1]; PPG membrane, feed pH 7.1, strip 0.1N NaOH, 23° C. (Example 33)
  permeability of ethyl benzoate through the membrane: about 9×10^-4 cm/sec
[1]; overnight, initial 500 mg/L (Example 33)
  ethyl benzoate concentration in the feed side: 1 mg/L

## C=CC(=O)O [Acrylic Acid]
[2]
  K PPG-4000/Water: 5
[4]
  K Octanol/Water: 1.35

## CCCC(=O)O [Butyric Acid (C4), Butyric Acid]
Not told
  Permeability: 42 ×10⁻⁶ cm/s

## [Cl-].[K+] [KCl]
[1]; Example 2
  chloride concentration on waste side: over 100 g/L
[1]; Example 2, overnight, measure of KCl transport
  chloride content in caustic strip solution: 0.049 g/L

## CCCCCC(=O)O [Caproic Acid (C6), Caproic Acid]
[1]; carbamate-functional liquid membrane drawing 12 (Example 2d)
  initial rate of caproic acid transport relative to PPG membrane: about the same as with PPF-4000
[1]; carbamate-functional liquid membrane drawing 12, after 23 hours, initial 1800 ppm (Example 2d)
  caproic acid level in waste solution: 13 ppm
[2]
  Partition Coeff. (Kp): 83
[8]
  Permeability: 400 ×10⁻⁶ cm/s

## CCC(=O)O [Propionic Acid (C3), Propionic Acid]
[1]; [10]
  Initial Rate: 5.4 mg/hr-cm^2
Not told
  Permeability: 33 ×10⁻⁶ cm/s

## O [water]
[5]; [13]
  water movement (diffusion) through liquid membrane: very little water movement

## Nc1ccc([N+](=O)[O-])cc1 [p-nitroaniline]
[1]; feed pH 9, ~500 mg/L, strip 0.1N nitric acid (Example 8)
  initial rate of PNA transport: about 1.5 mg/hr-cm^2
[1]; overnight (Example 8)
  PNA level in the feed: 70 mg/L
  PNA level in the stripping solution: 450 mg/L

## CCCCCCCCO [octanol, reference compound]
[5]; octanol liquid membrane in operation (Example 25)
  time to breakdown of immobilized liquid membrane: about 10 minutes

## CCCCO [butanol]
[6]; PPG-4000 in Celgard 2500, air sweep
  initial rate of butanol removal: about 7 mg/hr-cm^2
[6]; after about 5 hr, initial 5000 mg/L
  butanol concentration in the aqueous solution: about 400 mg/L

## Oc1ccccc1 [Phenol]
[1]
  concentration in the feed: about 5 mg/L
  concentration in the stripping solution: about 5050 mg/L
[2]
  K PPG-4000/Water: 150

## N#C/C=C/C#N [fumaronitrile]
[1]
  initial rate of fumaronitrile transport: about 0.5 mg/hr-cm^2

## [Cl-].[Na+] [NaCl]
[5]; [13]
  salt passage through liquid membrane: essentially no salt to pass through
